In the supplement of paper PMC10307832 one finds relative viability data, which are given here for four cell lines.

Common to all, as to assay: relative viability (nuclei count vs DMSO), 5 days (fraction); higher = more cells survive
Compound in the experiment “Dabrafenib + Navitoclax”: CC(C)(C)c1nc(-c2cccc(NS(=O)(=O)c3c(F)cccc3F)c2F)c(-c2ccnc(N)n2)s1 [Dabrafenib] + CC1(C)CCC(c2ccc(Cl)cc2)=C(CN2CCN(c3ccc(C(=O)NS(=O)(=O)c4ccc(N[C@H](CCN5CCOCC5)CSc5ccccc5)c(S(=O)(=O)C(F)(F)F)c4)cc3)CC2)C1 [Navitoclax] (partner 0.5 µM)
In outline:
(§1)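 Nuclei were stained with Hoechst during a one-step fixation (final 0.05% Triton X-100, 1% formaldehyde, 1 ug/ml Hoechst) carried out 5 days after dosing, then counted on 4× images. The cells, lung cancer lines in 1536-well plates, had been dosed by pin tool the day after seeding with one drug alone or a fixed anchor-drug dose plus five library-drug doses (not always all listed) in √10 steps. Relative viability is the nuclei count in treated wells divided by that in vehicle wells, and each value is the median of duplicate plates.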

Compound in the experiment “Dabrafenib + Trametinib”: CC(C)(C)c1nc(-c2cccc(NS(=O)(=O)c3c(F)cccc3F)c2F)c(-c2ccnc(N)n2)s1 [Dabrafenib] + CC(=O)Nc1cccc(-n2c(=O)n(C3CC3)c(=O)c3c(Nc4ccc(I)cc4F)n(C)c(=O)c(C)c32)c1 [Trametinib] (partner 0.02 µM)
In outline: as §1

Compound in the experiment “Dabrafenib + Palbociclib”: CC(C)(C)c1nc(-c2cccc(NS(=O)(=O)c3c(F)cccc3F)c2F)c(-c2ccnc(N)n2)s1 [Dabrafenib] + CC(=O)c1c(C)c2cnc(Nc3ccc(N4CCNCC4)cn3)nc2n(C2CCCC2)c1=O [Palbociclib] (partner 0.5 µM)
The gist of the method: as §1

Compound in the experiment “Dabrafenib + Linsitinib”: CC(C)(C)c1nc(-c2cccc(NS(=O)(=O)c3c(F)cccc3F)c2F)c(-c2ccnc(N)n2)s1 [Dabrafenib] + C[C@]1(O)C[C@@H](c2nc(-c3ccc4ccc(-c5ccccc5)nc4c3)c3c(N)nccn32)C1 [Linsitinib] (partner 1 µM)
The gist of the method:
as §1

With SK-LU-1, the relative viability in the experiment with Dabrafenib + Navitoclax (first compound 0.003 µM) is 0.557; in the experiment with Dabrafenib + Navitoclax (first compound 0.009487 µM) it was 0.789; in the experiment with Dabrafenib + Navitoclax (first compound 0.03 µM), 0.806; in the experiment with Dabrafenib + Navitoclax (first compound 0.09487 µM), 0.709; with Dabrafenib + Navitoclax (first compound 0.3 µM), 0.567; with Dabrafenib + Trametinib (first compound 0.009487 µM), 0.437. Also, the relative viability with Dabrafenib + Trametinib (first compound 0.03 µM) is 0.329; with Dabrafenib + Trametinib (first compound 0.09487 µM), 0.488; with Dabrafenib + Trametinib (first compound 0.3 µM), 0.456; with Dabrafenib + Palbociclib (first compound 0.009487 µM), 0.395; with Dabrafenib + Palbociclib (first compound 0.03 µM) it was 0.238; with Dabrafenib + Palbociclib (first compound 0.09487 µM), 0.365. Besides, the relative viability with Dabrafenib + Palbociclib (first compound 0.3 µM) was determined as 0.371; in the experiment with Dabrafenib + Linsitinib (first compound 0.003 µM) it was 0.799; in the experiment with Dabrafenib + Linsitinib (first compound 0.009487 µM), 1; with Dabrafenib + Linsitinib (first compound 0.03 µM) it was 0.813; with Dabrafenib + Linsitinib (first compound 0.09487 µM), 0.968; with Dabrafenib + Linsitinib (first compound 0.3 µM), 0.833.

As to SK-MES-1, the relative viability was found to be 1.22 with Dabrafenib + Navitoclax (first compound 0.003 µM); 1.22 with Dabrafenib + Navitoclax (first compound 0.009487 µM); 1.2 with Dabrafenib + Navitoclax (first compound 0.03 µM); 1.04 with Dabrafenib + Navitoclax (first compound 0.09487 µM); 1.17 with Dabrafenib + Navitoclax (first compound 0.3 µM); 0.653 with Dabrafenib + Trametinib (first compound 0.009487 µM). Moreover, the relative viability amounted to 0.747 with Dabrafenib + Trametinib (first compound 0.03 µM); 0.712 in the experiment with Dabrafenib + Trametinib (first compound 0.09487 µM); 0.827 in the experiment with Dabrafenib + Trametinib (first compound 0.3 µM); 0.296 with Dabrafenib + Palbociclib (first compound 0.009487 µM); 0.27 with Dabrafenib + Palbociclib (first compound 0.03 µM); 0.258 in the experiment with Dabrafenib + Palbociclib (first compound 0.09487 µM). The relative viability amounted to 0.31 in the experiment with Dabrafenib + Palbociclib (first compound 0.3 µM); 1.07 in the experiment with Dabrafenib + Linsitinib (first compound 0.003 µM); 1.04 with Dabrafenib + Linsitinib (first compound 0.009487 µM); 1.06 in the experiment with Dabrafenib + Linsitinib (first compound 0.03 µM); 1.04 with Dabrafenib + Linsitinib (first compound 0.09487 µM); 1.12 with Dabrafenib + Linsitinib (first compound 0.3 µM).

Take SW 1573: the relative viability in the experiment with Dabrafenib + Navitoclax (first compound 0.003 µM) amounted to 1.13; with Dabrafenib + Navitoclax (first compound 0.009487 µM) it was 1.04; with Dabrafenib + Navitoclax (first compound 0.03 µM), 0.998; in the experiment with Dabrafenib + Navitoclax (first compound 0.09487 µM), 0.755; in the experiment with Dabrafenib + Navitoclax (first compound 0.3 µM), 1.06; in the experiment with Dabrafenib + Trametinib (first compound 0.003 µM) it was 0.608. Further, the relative viability turned out to be 0.547 with Dabrafenib + Trametinib (first compound 0.009487 µM); 0.669 with Dabrafenib + Trametinib (first compound 0.03 µM); 0.648 with Dabrafenib + Trametinib (first compound 0.09487 µM); 0.705 with Dabrafenib + Trametinib (first compound 0.3 µM); 0.431 in the experiment with Dabrafenib + Palbociclib (first compound 0.003 µM); 0.484 with Dabrafenib + Palbociclib (first compound 0.009487 µM). For the same cell line, the relative viability in the experiment with Dabrafenib + Palbociclib (first compound 0.03 µM) came to 0.363; with Dabrafenib + Palbociclib (first compound 0.09487 µM), 0.349; in the experiment with Dabrafenib + Palbociclib (first compound 0.3 µM), 0.392; with Dabrafenib + Linsitinib (first compound 0.003 µM) it was 0.827; with Dabrafenib + Linsitinib (first compound 0.009487 µM), 0.844; with Dabrafenib + Linsitinib (first compound 0.03 µM), 0.722. Also, the figures for the relative viability with Dabrafenib + Linsitinib (first compound 0.09487 µM) and with Dabrafenib + Linsitinib (first compound 0.3 µM) were 0.792 and 0.821, respectively.

Regarding UMC-11, the relative viability with Dabrafenib + Navitoclax (first compound 0.003 µM) is 0.295; with Dabrafenib + Navitoclax (first compound 0.009487 µM), 0.369; with Dabrafenib + Navitoclax (first compound 0.03 µM), 0.315; in the experiment with Dabrafenib + Navitoclax (first compound 0.09487 µM) it was 0.356; with Dabrafenib + Navitoclax (first compound 0.3 µM) it was 0.332; in the experiment with Dabrafenib + Trametinib (first compound 0.003 µM), 0.773. For the same cell line, the relative viability with Dabrafenib + Trametinib (first compound 0.009487 µM) turned out to be 0.759; with Dabrafenib + Trametinib (first compound 0.03 µM) it was 0.495; with Dabrafenib + Trametinib (first compound 0.09487 µM), 0.755; in the experiment with Dabrafenib + Trametinib (first compound 0.3 µM), 0.848; in the experiment with Dabrafenib + Palbociclib (first compound 0.003 µM), 0.33; in the experiment with Dabrafenib + Palbociclib (first compound 0.009487 µM), 0.31. The relative viability with Dabrafenib + Palbociclib (first compound 0.03 µM) came to 0.288; with Dabrafenib + Palbociclib (first compound 0.09487 µM), 0.327; with Dabrafenib + Palbociclib (first compound 0.3 µM) it was 0.349; in the experiment with Dabrafenib + Linsitinib (first compound 0.003 µM), 1.12; with Dabrafenib + Linsitinib (first compound 0.009487 µM), 1.09; with Dabrafenib + Linsitinib (first compound 0.03 µM) it was 0.985. The figures for the relative viability in the experiment with Dabrafenib + Linsitinib (first compound 0.09487 µM) and with Dabrafenib + Linsitinib (first compound 0.3 µM) were 0.982 and 1.03, respectively.
